Assays:
LAT1 transporter = molecular target: T1, LAT1 transporter (Homo sapiens, UniProt Q01650); assay: AV-101 uptake in HEK-293 cells overexpressing LAT1; format: cell-based
T1 construct: expressed in transfected cells; host or cells: HEK-293
Description: The L-Type Amino Acid Transporter 1 (LAT1, SLC7A5) is part of the SLC7 family and forms a heterodimer with CD98 via a disulphide bond (Mastroberardino, L. et al. Amino-acid transport by heterodimers of 4F2hc/CD98 and members of a permease family. Nature 395, 288-291, doi: 10.1038/26246 (1998)). CD98 (4F2hc, SLC3A2) is a type II glycoprotein that functions as a chaperone for LAT1, stabilizing and facilitating its translocation to the plasma membrane. LAT1 is the functional unit of the complex (Napolitano, L. et al. LAT1 is the transport competent unit of the LAT1/CD98 heterodimeric amino acid transporter. The international journal of biochemistry & cell biology, doi: 10.1016/j.biocel.2015.08.004 (2015)) and substrates include a range of large neutral amino acids such as tyrosine, leucine, isoleucine, valine and phenylalanine as well as pharmaceutical drugs including L-DOPA and gabapentin. (Dickens, D. et al. Transport of gabapentin by LAT1 (SLC7A5). Biochem Pharmacol 85, 1672-1683, doi: 10.1016/j.bcp.2013.03.022 (2013); Uchino, H. et al. Transport of amino acid-related compounds mediated by L-type amino acid transporter 1 (LAT1): insights into the mechanisms of substrate recognition. Molecular pharmacology 61, 729-737 (2002)). The SLC7A5 locus with rsid rs28582913 has a single nucleotide polymorphism, wherein the minor allele, T instead of C, at position 87843494 on chromosome 16, is present in approximately 18-56% of the population depending on ethnicity (https://www.ncbi.nlm.nih.gov/snp/rs28582913#frequency_tab), and results in a 1.94 fold increase in the kynurenine metabolite. […] Additionally, physiological amino acids reduce LAT1 mediated transport of AV-101.

[1] = system: Human brain endothelial cells; assay: AV-101 uptake in human brain endothelial cells; format: cell-based
Description: The L-Type Amino Acid Transporter 1 (LAT1, SLC7A5) is part of the SLC7 family and forms a heterodimer with CD98 via a disulphide bond (Mastroberardino, L. et al. Amino-acid transport by heterodimers of 4F2hc/CD98 and members of a permease family. Nature 395, 288-291, doi: 10.1038/26246 (1998)). CD98 (4F2hc, SLC3A2) is a type II glycoprotein that functions as a chaperone for LAT1, stabilizing and facilitating its translocation to the plasma membrane. LAT1 is the functional unit of the complex (Napolitano, L. et al. LAT1 is the transport competent unit of the LAT1/CD98 heterodimeric amino acid transporter. The international journal of biochemistry & cell biology, doi: 10.1016/j.biocel.2015.08.004 (2015)) and substrates include a range of large neutral amino acids such as tyrosine, leucine, isoleucine, valine and phenylalanine as well as pharmaceutical drugs including L-DOPA and gabapentin. (Dickens, D. et al. Transport of gabapentin by LAT1 (SLC7A5). Biochem Pharmacol 85, 1672-1683, doi: 10.1016/j.bcp.2013.03.022 (2013); Uchino, H. et al. Transport of amino acid-related compounds mediated by L-type amino acid transporter 1 (LAT1): insights into the mechanisms of substrate recognition. Molecular pharmacology 61, 729-737 (2002)). […]

[2] = system: depression, major depressive disorder; assay: Treatment of depression / MDD in genotyped subjects; format: in vivo, human
Description: In subjects with the BDNF variant, the A allele of the SNP rs6265 a higher dose of the L-4-CI-KYN results in the mood-enhancing or anti-depressive response. Subjects affirmatively report feelings of well-being. This is consistent with reports that the glutamatergic system contributes to the pathophysiology of depression and that stress can induce changes in NMDA receptors. See, for example, Calabrese, et al., PloS one vol. 7,5 (2012): e37916. Twenty-five subjects, both male and female, ages 18 to 65, with a diagnosis of MDD are treated with either L-4-CI-KYN (1,080 or 1,440 mg/day given orally) for 2 weeks, similar in design to similar studies. See e.g., Ibrahim et al. J Clin Psychopharmacol. 2012 August; 32(4): 551-557; Zarate et al. Biol Psychiatry. 2013 Aug. 15; 74(4):257-64; Zarate et al. Arch Gen Psychiatry. 2006 August; 63(8):856-64; Zarate et al. 2005 Biological psychiatry 57 (4), 430-432. The subjects are pre-screened to be positive for at least one of the following variant SNPs, the T allele of SNP rs61825638, the T allele of SNP rs28582913, or the C allele of rs2121337, or positive for the G allele of rs6265. In addition, a control group of twenty-five subjects is pre-screened as lacking any of: the T allele of SNP rs61825638, the T allele of SNP rs28582913, or the C allele of rs2121337, or lacking the G allele of SNP rs6265. […] Montgomery et al. 1979, Brit. J. Psych., 134:382-389. […]

[3] = cited from earlier work; for crossing of the blood-brain barrier / access to the CNS: after administration

T1 sequence (Q01650 whole entry): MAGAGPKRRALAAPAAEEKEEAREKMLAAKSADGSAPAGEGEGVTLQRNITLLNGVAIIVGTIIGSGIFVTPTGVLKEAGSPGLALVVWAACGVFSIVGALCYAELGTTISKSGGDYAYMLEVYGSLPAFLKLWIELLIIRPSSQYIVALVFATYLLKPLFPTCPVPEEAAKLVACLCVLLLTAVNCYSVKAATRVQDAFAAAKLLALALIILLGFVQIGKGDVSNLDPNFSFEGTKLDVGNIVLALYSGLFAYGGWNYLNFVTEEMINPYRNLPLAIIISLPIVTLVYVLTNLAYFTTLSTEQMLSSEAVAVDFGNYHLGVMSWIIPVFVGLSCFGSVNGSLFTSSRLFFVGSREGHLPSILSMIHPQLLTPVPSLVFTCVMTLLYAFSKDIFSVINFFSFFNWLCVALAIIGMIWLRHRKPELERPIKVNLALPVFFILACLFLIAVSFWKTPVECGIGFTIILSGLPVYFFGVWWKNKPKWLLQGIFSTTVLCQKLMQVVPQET
T1 sequence (P08195 102-630 partner): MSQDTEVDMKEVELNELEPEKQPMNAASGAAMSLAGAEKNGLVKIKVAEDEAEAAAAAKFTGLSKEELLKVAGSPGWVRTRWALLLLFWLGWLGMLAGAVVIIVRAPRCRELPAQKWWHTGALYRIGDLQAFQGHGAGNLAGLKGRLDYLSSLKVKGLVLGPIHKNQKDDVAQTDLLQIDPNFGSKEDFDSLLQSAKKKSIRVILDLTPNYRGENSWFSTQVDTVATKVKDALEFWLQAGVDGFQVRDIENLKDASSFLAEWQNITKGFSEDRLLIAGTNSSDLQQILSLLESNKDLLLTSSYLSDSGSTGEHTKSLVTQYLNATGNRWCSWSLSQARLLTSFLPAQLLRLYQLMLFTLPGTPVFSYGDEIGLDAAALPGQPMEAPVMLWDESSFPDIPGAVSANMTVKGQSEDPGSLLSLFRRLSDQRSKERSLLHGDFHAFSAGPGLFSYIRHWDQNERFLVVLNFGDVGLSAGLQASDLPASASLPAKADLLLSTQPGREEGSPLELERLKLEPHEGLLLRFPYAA

Row | substrate status for the LAT1 transporter (LAT1 transporter) | AV-101 uptake (LAT1 transporter; HEK-293 cells overexpressing LAT1) | AV-101 uptake [1] | effect on AV-101 uptake (LAT1 transporter; LAT1 inhibitor added, HEK-293 cells overexpressing LAT1) | SMILES | HDRS and/or MADRS total scores ([2]; MDD subjects, 1,080 or 1,440 mg/day orally for 2 weeks) | mood enhancing or anti-depressive activity ([2]; subjects with KMO rs61825638 T, SLC7A5 rs28582913 T or ACMSD rs2121337 C variant) | crossing of the blood-brain barrier / access to the CNS [3] | conversion to 7-chlorokynurenic acid ([3]; within activated astrocytes) | effect on AV-101 uptake ([1]; in the presence of JPH203)
1 | substrate for the LAT1 transporter | substantial increase | significant uptake |  | Nc1cc(Cl)ccc1C(=O)CC(N)C(=O)O [L-4-CI-KYN, L-4-chlorokynurenine] | significant decrease | observed for a higher number of subjects, or for the same number of patients but at a lower dose | readily gains access to the central nervous system | efficiently converted | 
2 |  |  |  |  | O=C(O)c1cc(O)c2ccc(Cl)cc2n1 [7-chlorokynurenic acid, reference compound] |  |  | does not cross the blood-brain barrier |  | 
3 |  |  |  | substantially reduced | Nc1cc(COc2c(Cl)cc(C[C@H](N)C(=O)O)cc2Cl)c2oc(-c3ccccc3)nc2c1 [JPH203, reference compound] |  |  |  |  | significantly diminished

Source: US20220202756A1, “GENETIC VARIANTS ASSOCIATED WITH RESPONSE TO TREATMENT OF NEUROLOGICAL DISORDERS” (VISTAGEN THERAPEUTICS, INC., priority 2019, published 2022)
